{
  "source": "patent US10787640B2",
  "about": "“Producing mesodermal cell types and methods of using the same” (The Board of Trustees of the Leland Stanford Junior …, priority 2015, dated 2020)",
  "molecules": {"B1": {"name": "WNT3A: Wnt agonist, WNT family ligand (protein, UniProt P56704 19-352, looked up)", "Protein Wnt-3a": "SYPIWWSLAVGPQYSSLGSQPILCASIPGLVPKQLRFCRNYVEIMPSVAEGIKIGIQECQHQFRGRRWNCTTVHDSLAIFGPVLDKATRESAFVHAIASAGVAFAVTRSCAEGTAAICGCSSRHQGSPGKGWKWGGCSEDIEFGGMVSREFADARENRPDARSAMNRHNNEAGRQAIASHMHLKCKCHGLSGSCEVKTCWWSQPDFRAIGDFLKDKYDSASEMVVEKHRESRGWVETLRPRYTYFKVPTERDLVYYEASPNFCEPNPETGSFGTRDRTCNVSSHGIDGCDLLCCGRGHNARAERRREKCRCVFHWCCYVSCQECTRVYDVHTCK"}},
  "type_in_all_cases": "cell-based, human",
  "key": {"hESCs": {"tested_on": "hESCs", "assay": "Primitive streak (PS) induction from hESCs, qPCR", "experimental": "As aforementioned, after overnight plating, hPSCs were briefly washed (with DMEM/F12) and then differentiated into either anterior primitive streak (30 ng/mL Activin A+4 μM CHIR99021+20 ng/mL FGF2+100 nM PIK90; for subsequent paraxial mesoderm induction) or mid primitive streak ([…] Activin A+40 ng/mL BMP4+6 μM CHIR99021+20 ng/mL FGF2+100 nM PIK90; for subsequent cardiac mesoderm induction) for 24 hrs.\nTotal cDNA was diluted 1:10-1:30 in H2O and qPCR was performed with the SensiFAST SYBR Lo-ROX Kit (Bioline) with 10 μL qPCR reactions per well in a 384-well plate: 5.0 μL 2× qPCR Master Mix+4.6 μL cDNA (totaling ˜120 ng of cDNA)+0.4 μL of 10 μM primer stock (5 μM forward+5 μM reverse primers). In general, gene-specific primer pairs were tested for (1) specificity of amplicon amplification (only one peak on a dissociation curve) and (2) linearity of amplicon amplification (linear detection of gene expression in cDNA samples serially diluted seven times over two orders of magnitude, with 90-110% efficiency of amplification deemed acceptably linear). After qPCR plates were prepared by arraying sample-specific cDNAs and gene-specific primers, they were sealed and briefly centrifuged (5 mins). 384-well qPCR plates and their adhesive sealing sheets were obtained from Thermo (AB1384 and AB0558, respectively). qPCR plates were run on a 7900HT Fast Real-Time PCR System (Applied Biosystems) with the following cycling parameters: initial dissociation (95° C., 2 mins) followed by 40 cycles of amplification and SYBR signal detection (95° C. dissociation, 5 seconds; 60° C. annealing, 10 seconds; followed by 72° C. extension, 30 seconds), with a final series of steps to generate a dissociation curve at the end of each qPCR run. During qPCR data analysis, the fluorescence threshold to determine Ct values was set at the linear phase of amplification; other qPCR data analysis methods including qPCR heatmap generation using the GenePattern platform (Broad Institute) were described previously by Loh et al., 2014, the disclosure of which is incorporated herein by reference in its entirety.\nE) To assess whether inducing PS in the presence of TGFβ signaling altered its downstream potential to form different kinds of mesoderm, (i) H7 hESCs were differentiated into PS with CHIR99021+FGF2+PIK90 (CFK) for 24 hours in the presence or absence of increasing amounts of Activin (10-100 ng/mL), and then were transferred into paraxial mesoderm induction conditions (A-83-01+CHIR99021+DM3189+FGF2) for 24 hrs, and qPCR was conducted or (ii) H7 hESCs were differentiated into PS with BMP4 (10 ng/mL)+CHIR99021+FGF2+PIK90 (B10CFK) for 24 hours in the presence or absence of increasing amounts of Activin (10-100 ng/mL), and then were transferred into lateral/cardiac mesoderm inductions (A-83-01+BMP4+C59) for 24 hours and qPCR was conducted. […] F) To assess whether inducing PS in the presence of BMP signaling altered its downstream potential to form different kinds of mesoderm, H7 hESCs were differentiated into PS with Activin (10 ng/mL)+CHIR99021+FGF2+PIK90 (A10CFK) for 24 hours in the presence of absence of increasing amounts of BMP4 (1-40 ng/mL), and then were (i) transferred into paraxial mesoderm induction conditions (A-83-01+CHIR99021+DM3189+FGF2) for 24 hrs, and qPCR was conducted or were (ii) transferred into lateral/cardiac mesoderm inductions (A-83-01+BMP4+C59) for 24 hours and qPCR was conducted. […] G) H7 hESCs were differentiated into anterior primitive streak (30 ng/mL Activin+4 μM CHIR99021+20 ng/mL FGF2+100 nM PIK90) in the presence or absence of BMP4 (10 ng/mL) for 24 hours, and then transferred into paraxial mesoderm induction conditions for 24 hours before TBX6 immunostaining was conducted. […]"}, "[1]": {"tested_on": "hESC-derived primitive streak", "assay": "Paraxial versus lateral/cardiac mesoderm specification from primitive streak", "conditions": "for paraxial mesoderm induction (qPCR day 2): ACF with DMH1 1 μM or LDN193189 250 nM, CDF with SB-505124 2 μM or A-83-01 1 μM, 24 hours", "experimental": "Subsequently, day 1 anterior primitive streak was briefly washed (DMEM/F12) and differentiated towards day 2 paraxial mesoderm for 24 hours (1 μM A-83-01+3 μM CHIR99021+250 nM LDN-193189+20 ng/mL FGF2). Separately, day 1 mid primitive streak was differentiated towards day 2 lateral mesoderm for 24 hours (1 μM A-83-01+30 ng/mL BMP4+1 μM C59; with 2 μM SB-505124 sometimes used instead of A-83-01).\nB) To assess whether FGF/ERK signaling was permissive for both paraxial and lateral/cardiac mesoderm specification, hESCs were differentiated into primitive streak for 24 hours, and then transferred into (i) A-83-01+DM3189 (“AD”; permissive for paraxial mesoderm) or (iii) A-83-01+BMP4+C59 (“AB+C59”; permissive for lateral/cardiac mesoderm) for 24 hours in the presence or absence of a FGF agonist (FGF2, 10-20 ng/mL), an FGFR inhibitor (PD173074, 100 nM) or a MAPK/ERK inhibitor (PD0325901, 500 nM) for 24 hours and qPCR for all experiments was conducted on day 2 (that is, after 48 total hours of hESC differentiation). To assess whether TGFβ signaling altered paraxial, intermediate and lateral/cardiac mesoderm specification, hESCs were differentiated into primitive streak for 24 hours, and then transferred into (ii) DM3189+FGF2 (“DF”; permissive for paraxial mesoderm) or (iv) BMP4+C59 (“B+C59”; permissive for lateral/cardiac mesoderm) for 24 hours in the presence of a TGFβ agonist (Activin, 10-25 ng/mL) or a TGFβR inhibitor (A-83-01, 1 μM) for 24 hours or (v) BMP4 (3 ng/mL)+FGF2 (20 ng/mL) (“B3F20”) for 24 hours in the presence of a TGFβ agonist (Activin, 3-25 ng/mL) or a TGFβR inhibitor (A-83-01, 1 μM) and qPCR for all experiments was conducted on day 2 (that is, after 48 total hours of hESC differentiation). […] Therefore, hESCs were differentiated towards primitive streak for 24 hours, and then subsequently transferred into (i) A-83-01+CHIR99021+FGF2 (ACF) in the presence or absence of one of two BMPR inhibitors (DMH1, 1 μM or LDN193189, 250 nM) for 24 hours and qPCR was conducted on day 2. Alternately, hESC-derived PS was transferred into (ii) CHIR99021+DM3189+FGF2 (CDF) for 24 hours in the presence or absence of a TGFβ agonist (25 ng/mL Activin) or one of two TGFβR inhibitors (SB-505124, 2 μM or A-83-01, 1 μM) for 24 hours and qPCR was conducted on day 2. […] E) To test the role of FGF in lateral mesoderm induction (on day 2 of hESC differentiation), NKX2.5-GFP hESCs were differentiated into mid primitive streak for 24 hours, and then were treated with BMP4+C59+SB505124 in the presence of an FGF agonist (FGF2, 20-50 ng/mL) or a FGFR inhibitor (PD173074, 100 nM) or a MAPK/ERK inhibitor (PD0325901, 500 nM) for 24 hours, and then all cultures were treated with BMP4+C59+SB505124+FGF2 for 24 hours more before being harvested on day 3 for FACS."}, "day 2 paraxial mesoderm": {"tested_on": "day 2 paraxial mesoderm", "assay": "Early somite progenitor formation from paraxial mesoderm, qPCR", "conditions": "24 hours", "quoted_text": "Day 2 paraxial mesoderm was briefly washed (DMEM/F12) and further differentiated into day 3 early somite/somitomere precursors for 24 hours (1 μM A-83-01+250 nM LDN-193189+1 μM C59+500 nM PD0325901). Subsequently, day 3 early somites were dorsoventrally patterned into either ventral somites/sclerotome (5 nM 21K+1 μM C59) or dorsal somites/dermomyotome (3 μM CHIR99021+150 nM Vismodegib). Sclerotome induction was conducted for 48-72 hours (leading to day 5-6 ventral somite progenitors). For dermomyotome induction, sometimes dermomyotome was induced in the presence of 50 ng/mL BMP4 to upregulate PAX7 after 48 hours of BMP4+CHIR99021+Vismodegib differentiation (leading to day 5 dermomyotome progenitors). Media was changed 24 hours for all steps."}, "lateral mesoderm": {"tested_on": "lateral mesoderm", "assay": "Forelimb versus hindlimb progenitor specification from lateral mesoderm", "conditions": "for competence of lateral mesoderm for forelimb fate: lateral mesoderm induced in presence of retinoid antagonists", "experimental": "Undifferentiated hPSCs (wild-type H7 as well as TBX5-Venus V19-2 H9 hESCs) were maintained in mTeSR1 media on Geltrex-coated plates. As described, they were differentiated into mid primitive streak for 24 hours (D0-1; 30 ng/mL Activin+40 ng/mL BMP4+6 μM CHIR99021+20 ng/mL FGF2+100 nM PIK90) and subsequently differentiated into lateral mesoderm (D1-2; 1 μM A-83-01+30 ng/mL BMP4+1 μM C59), with the inclusion of 50 nM of TTNPB or 2 μM ATRA on D1-2 for trunk lateral mesoderm that was subsequently competent for forelimb differentiation.\nDay 2 trunk lateral mesoderm was differentiated into day 3 forelimb progenitors (D2-3; 1 μM A-83-01+1 μM DMH1+3 μM CHIR99021). By contrast, day 2 non-trunk lateral mesoderm was differentiated into day 3 hindlimb progenitors (D2-3; 25 ng/mL Activin+1 μM DMH1+3 μM CHIR99021)."}},
  "data": [
    {"molecule": "Cc1cccc(-c2nn(C(=S)Nc3ccccc3)cc2-c2ccnc3ccccc23)n1", "note": "[A-83-01, 3-(6-Methyl-2-pyridinyl)-N-phenyl-4-(4-quinolinyl)-1H-pyrazole-1-carbothioamide]", "values": [
      {"measurement": "PS differentiation", "setting": "hESCs; CHIR99021+20 ng/mL FGF2+100 nM PIK90 with 2 μM SB-505124 or 1 μM A-83-01", "result": "strongly impairs PS differentiation"},
      {"measurement": "paraxial mesoderm induction (qPCR day 2)", "setting": "[1]", "result": "serve to induce paraxial mesoderm"},
      {"measurement": "NKX2.5-GFP+ cardiac mesoderm induction (FACS day 3)", "setting": "[1]; BMP4 (50 ng/mL)+C59, 48 hours, SB-505124 2 μM or A-83-01 1 μM, P<0.01", "result": "increased NKX2.5-GFP^+ cardiac mesoderm induction"},
      {"measurement": "early somite marker expression (qPCR day 3)", "setting": "day 2 paraxial mesoderm; CDPR with A-83-01 1 μM", "result": "permissive for expression of early somite markers"}
    ]},
    {"molecule": "Cc1ccc(C2=CCC(C)(C)c3ccc(C#Cc4ccc(C(=O)O)cc4)cc32)cc1", "note": "[AGN193109]", "values": [
      {"measurement": "competence of lateral mesoderm for forelimb fate", "setting": "lateral mesoderm", "result": "incompetent to subsequently assume a forelimb fate"}
    ]},
    {"molecule": "CC1(C)CC=C(C#Cc2ccccc2)c2cc(/C=C/c3ccc(C(=O)O)cc3)ccc21", "note": "[BMS493]", "values": [
      {"measurement": "competence of lateral mesoderm for forelimb fate", "setting": "lateral mesoderm", "result": "incompetent to subsequently assume a forelimb fate"}
    ]},
    {"molecule": "CC(C)Oc1ccc(-c2cnc3c(-c4ccnc5ccccc45)cnn3c2)cc1", "note": "[DMH1, 4-[6-[4-(1-Methylethoxy)phenyl]pyrazolo[1,5-a]pyrimidin-3-yl]-quinoline]", "values": [
      {"measurement": "paraxial mesoderm induction (qPCR day 2)", "setting": "[1]", "result": "serve to induce paraxial mesoderm"}
    ]},
    {"molecule": "Cl.c1ccc2c(-c3cnn4cc(-c5ccc(N6CCNCC6)cc5)cnc34)ccnc2c1", "note": "[LDN193189, 4-[6-[4-(1-Piperazinyl)phenyl]pyrazolo[1,5-a]pyrimidin-3-yl]-quinoline hydrochloride]", "values": [
      {"measurement": "PS formation and anterior-posterior patterning", "setting": "hESCs; ACFK with LDN193189 250 nM or BMP4 3-100 ng/mL", "result": "fully abolished PS formation"},
      {"measurement": "paraxial mesoderm induction (qPCR day 2)", "setting": "[1]", "result": "serve to induce paraxial mesoderm"},
      {"measurement": "early somite marker expression (qPCR day 3)", "setting": "day 2 paraxial mesoderm; CPR with DM3189 250 nM", "result": "permissive for expression of early somite markers"}
    ]},
    {"molecule": "CC1=C(/C=C/C(C)=C/C=C/C(C)=C/C(=O)O)C(C)(C)CCC1", "note": "[all-trans retinoic acid]", "values": [
      {"measurement": "early somite marker expression (qPCR day 3)", "setting": "day 2 paraxial mesoderm; ACDP with RA 0.5-2 μM", "result": "dispensable for the expression of early somite markers"},
      {"measurement": "early somite marker expression (qPCR day 3)", "setting": "day 2 paraxial mesoderm; ACDP with RA 0.5-2 μM, listed as RA", "result": "dispensable for early somite formation"},
      {"measurement": "forelimb transcription factor TBX5 expression on D3", "setting": "lateral mesoderm; RA signaling activated for 24 hours during lateral mesoderm induction (D1-2)", "result": "paramount for lateral mesoderm to subsequently express key forelimb transcription factor TBX5"}
    ]},
    {"molecule": "B1", "values": [
      {"measurement": "PS marker expression (qPCR)", "setting": "hESCs; 24 hours in A3B3F20, 300 ng/mL WNT3A or 0.5-8 μM CHIR99021", "result": "broadly induces both anterior (TBX6) and mid/posterior (FOXF1, MESP1) PS markers"}
    ]}
  ]
}
